Key:
[1] = tested on: PLK-1 mRNA; test: LS411N Xenograft Assay; format: in vivo, Nu/Nu mice; conditions: percent knock down of PLK-1 mRNA vs control in LS411N tumors, IV 3 mg/kg daily for three days
Method: Female Nu/Nu mice (6-8 weeks old) were implanted subcutaneously with 5×10^6 LS411N cells. Tumor growth was monitored by caliper measurement before treatment initiation. Mice bearing 150-250 mm^3 subcutaneous tumors were randomized and enrolled in the study. The stock siRNA formulations were diluted to […] with PBS for dosing. Animals enrolled in different groups received a single daily bolus IV injection of 3 mg/kg siRNA for three days. Tumors were harvested 24 hours post last injection to assess target gene regulation by qRT-PCR.
Lipid nanoparticles comprising lipid compounds of formula (I) and the PLK1-424 siRNA duplex sequence listed above were tested in the LS411N Xenograft Assay. The results of this assay are given in Table 5 below as a percent knock down of PLK-1 mRNA as compared to the control when administered as a single daily dose for three days at a dose of 3 mg/kg.

[2] = tested on: plasma Factor VII enzyme activity; test: Mouse Factor VII dosing / Factor VII Activity Assay; format: in vivo; conditions: percent knock down of plasma Factor VII activity, CD-1 mice, 48 h; for KD FVII 0.03 mg/kg: single IV dose 0.03 mg/kg; for KD FVII 0.3 mg/kg: single IV dose 0.3 mg/kg
Outline: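 Female CD-1 mice (~25 g) received a single IV tail-vein dose of lipid-nanoparticle-formulated Factor VII siRNA (0.3 or 0.03 mg/kg). Plasma taken ~48 h later; FVII activity measured chromogenically against vehicle-control plasma standard curve, reported as % knockdown.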

[3] = tested on: human leptin; test: Mouse intravenous tail vein injection of modified synthetic leptin mRNA, human leptin ELISA; format: in vivo, C57BL/6 mouse; conditions: human leptin in mouse plasma, 10 μg leptin mRNA, 24 h
Method: Before the tail vein injection, mouse body weights were recorded and diet weighted, with mice grouped according to their body weights. Mice were prepared by warming them under a heating lamp for ˜2 minutes, with the mice about 12 inches from heat lamp.
For the tail vein injection procedure, the mice were placed in a restrainer and their tails cleaned with 70% alcohol. A 27 gauge needle (Becton Dickinson, Catalogue #305109) connected with a 1 ml syringe (Becton Dickinson, Catalogue #309659) was inserted into the tail vein, with bevel facing up, and the syringe plunger was pulled backwards to ensure blood is drawn into the syringe. The desired volume of modified synthetic leptin mRNA was injected by hand with moderate pressure and speed. The needle was then withdrawn and bleeding stopped by adding pressure to injection site with gauze.
Single housed, 8-9 week old, male C57BL/6 mice were used for the in vivo study. FPLC purified modified synthetic leptin mRNA (SEQ ID NO: 5) in which the uridines were substituted with pseudouridine was packaged in a cationic lipid (N:P molar ratio=8:1) and then were diluted in injectable saline at a dose of 10 μg per average group body weight.
On day 0, animals were weighed and sorted according to average body weight. Mice were dosed, and food intake (FI) was recorded, on each of days 1-7 and days 9, 11, and 16.
(§1) Human leptin in mouse plasma was measured by ELISA. Antibodies purchased from the R&D Systems duoset (Cat# DY398E, part#840279 for capture antibody and part#840280 for detection antibody) were reconstituted using PBS and titered, again using PBS. The capture antibody was coated at 4 ug/ml in 30 ul/well on a white Nunc® Maxisorp 384 well plate (Cat#460372). After an overnight incubation at room temperature the capture antibody was aspirated and the plate blocked for 2 hours at room temperature with 90 ul/well of KPL milk blocker (Cat#50-82-00). Once the incubation was completed the plate was aspirated and recombinant standards and samples were added to the plate at 30 ul/well for 2 hours at 37° C. while shaking at 600 rpm. Sample/standard dilutions were made using casein sample diluent. Washing/aspiration 3 times with 100 ul/well followed, using Teknova plate wash solution (Cat# P1192). Next, detection antibody was diluted using casein detection antibody diluent to 12.5 ng/ml and added at 30 ul/well for 2 hours room temperature. After this incubation, the plate was washed again and a solution of poly-streptavidin-HRP (Cat#21140) at a 1:1250 dilution in HRP dilution buffer was added to each well (30 ul/well) and incubated for 30 minutes room temperature. A final wash/aspiration removed the HRP solution and a chemiluminescent substrate was added at 30 ul/well (Cat#1859678 & 1859679). The plate was quickly read using a SpectramaxM5 plate reader with a 50 ms integration time. The dynamic range of the ELISA is from 100-2,000 pg/ml (6.25-125 pM) of human leptin.

[4] = tested on: human leptin; test: Mouse subcutaneous injection of modified synthetic leptin mRNA, human leptin ELISA; format: in vivo; conditions: human leptin in mouse plasma, 10 μg leptin mRNA
Method: Prior to subcutaneous injection, mouse body weights were recorded and diet weighted, with mice grouped according to their body weights. The mice were manually restrained and placed on a work surface. Their scruffs were pinched and lifted away from the underlying muscle, the space into which was inserted a 25 gauge needle connected with a 1 ml syringe. The syringe plunger was pulled backwards in such a way as to ensure no fluid was drawn into the syringe, and then the desired volume of leptin mRNA was hand injected with moderate pressure and speed. The needle was then withdrawn and the mice returned to their cages.
8-9 week old, male C57BL/6 mice were used for the in vivo study. FPLC purified modified synthetic leptin mRNA (SEQ ID NO: 5) in which the uridines were substituted with pseudouridine (N:P molar ratio=8:1) packaged in multiple cationic lipid were diluted in injectable saline at a dose of 10 μg per average group body weight.
On day 0, animals were weighed and sorted according to average body weight. ice were dosed at 9 AM and blood was taken at 9 AM on day 0. Blood was also taken at 9 AM on each of days 1 and 2 and assessed for leptin protein levels. Body weight and food intake were also recorded.
as §1, with “leptin. The assay is applicable to plasma from mice, rats and cynomolgus monkeys.” for “leptin.”

[5] = Polydispersity index (PDI) of lipid nanoparticle (dynamic light scattering); format: physicochemical
Method: Unless indicated otherwise, all PDIs referred to herein are the PDI of the fully formed nanoparticle, as measured by dynamic light scattering on a Malvern Zetasizer. The nanoparticle sample was diluted in phosphate buffered saline (PBS) so that the count rate was approximately 200-400 kcts. The data is presented in Tables 4 and 5 as a weighted average of the intensity measure.

[6] = Particle size of lipid nanoparticle (dynamic light scattering, Malvern Zetasizer); format: physicochemical
Outline: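 Sizes are average diameters of fully formed nanoparticles measured by dynamic light scattering. Samples were diluted in PBS to a count rate of about 200–400 kcts. Values are intensity-weighted Z-average sizes.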

[7] = LNP Chol/DSPC/PEG-DMG 45/44/9/2
[8] = PLK1-424 siRNA LNP, Chol/DSPC/S010 45/44/9/2

SMILES | LS411 KD 3 × 3 mg/Kg ([1]; LNP Chol/DSPC/PEG-DSG 45/44/9/2) [%] | LS411 KD 3 × 3 mg/Kg ([1]; LNP Chol/DSPC/S010 45/44/9/2) [%] | KD FVII 0.03 mg/kg [2, 7] [%] | KD FVII 0.03 mg/kg ([2]; LNP Chol/DSPC/S010 45/44/9/2) [%] | Leptin expression IV-C57BI/6, 24 h [3] [ng/mL] | Leptin expression SC-C57BI/6, 24 h [4] [ng/mL] | KD FVII 0.3 mg/kg [2, 7] [%] | PDI ([5]; FVII siRNA LNP, Chol/DSPC/PEG-DMG, molar ratio 45/44/9/2) | PDI ([5]; FVII siRNA LNP, Chol/DSPC/S010, molar ratio 45/44/9/2) | PDI [5, 8] | Size (nm) ([6]; FVII siRNA LNP, Chol/DSPC/PEG-DMG, molar ratio 45/44/9/2, Z-average) | Size (nm) ([6]; FVII siRNA LNP, Chol/DSPC/S010, molar ratio 45/44/9/2, Z-average) | Size (nm) [6, 8] [nm]
CCCCCCCCCC(=O)OCCCCCCCCOc1cc(CN(C)C)cc(OCCCCCCCCOC(=O)CCCCCCCCC)c1 [Example 52, ((5-((dimethylamino)methyl)-1,3-phenylene)bis(oxy))bis(octane-8,1-diyl)bis(decanoate)] | 69 | 50 | 72.5 | 73.5 | 21.18 | 0.85 |  |  |  |  |  |  | 
CCCCCCCCCCCC(=O)OCCCCCCOc1cc(CN(C)C)cc(OCCCCCCOC(=O)CCCCCCCCCCC)c1 [Example 59, ((5-((dimethylamino)methyl)-1,3-phenylene)bis(oxy))bis(hexane-6,1-diyl)didodecanoate] |  |  |  | 48.24 | 8.08 | 1.16 |  |  |  |  |  |  | 
CCCCCCCC(=O)OCC(CCOc1cc(CN(C)C)cc(OCCC(COC(=O)CCCCCCC)OC(=O)CCCCCCC)c1)OC(=O)CCCCCCC (stereo not drawn) [Example 91, 4,4′-((5-((dimethylamino)methyl)-1,3-phenylene)bis(oxy))bis(butane-1,2-diyl)tetraoctanoate] |  | 45 |  |  |  |  | 99.0 | 0.06 | 0.053 | 0.032 | 124.3 | 111.9 | 136.1
CCCCCCCC(=O)OCCCCCCCCCCOc1cc(CN(C)C)cc(OCCCCCCCCCCOC(=O)CCCCCCC)c1 [Example 43, ((5-((dimethylamino)methyl)-1,3-phenylene)bis(oxy))bis(decane-10,1-diyl)dioctanoate] |  | 40 |  |  | 13.56 | 0.66 | 97.4 |  |  |  |  |  | 
CCCCC/C=C\C/C=C\CCCCCCCC(=O)OCCCOc1cc(CN(C)C)cc(OCCCOC(=O)CCCCCCC/C=C\C/C=C\CCCCC)c1 [Example 39, (9Z,9′Z,12Z,12′Z)-((5-((dimethylamino)methyl)-1,3-phenylene)bis(oxy))bis(propane-3,1-diyl)bis(octadeca-9,12-dienoate)] |  | 55 |  |  | 10.47 | 0.79 |  |  |  |  |  |  | 

Source: patent publication US10124065B2, “Lipids and lipid compositions for the delivery of active agents” (Novartis AG, priority 2013, dated 2018)
